{"source": "paper PMC8398766", "about": "“Do Small Molecules Activate the TrkB Receptor in the Same Manner as BDNF? Limitations of Published TrkB Low Molecular Agonists and Screening for Novel TrkB Orthosteric Agonists” (Pharmaceuticals, 2021)", "molecules": {"B1": {"name": "BDNF: Brain-derived neurotrophic factor, endogenous TrkB receptor agonist (protein, UniProt P23560 19-247, looked up)", "Neurotrophic factor BDNF …": "APMKEANIRGQGGLAYPGVRTHGTLESVNGPKAGSRGLTSLADTFEHVIEELLDEDQKVRPNEENNKDADLYTSRVMLSSQVPLEPPLLFLLEEYKNYLDAANMSMRVRRHSDPARRGELSVCDSISEWVTAADKKTAVDMSGGTVTVLEKVPVSKGQLKQYFYETKCNPMGYTKEGCRGIDKRHWNSQCRTTQSYVRALTMDSKKRIGWRFIRIDTSCVCTLTIKRGR"}}, "key": {"[1]": {"biological_target": "T1, A1 (Homo sapiens, UniProt P30542)", "T1 construct": "purchased Eurofins Discovery (Cerep) BioPrint Profile Panel", "T1 sequence (P30542 whole entry)": "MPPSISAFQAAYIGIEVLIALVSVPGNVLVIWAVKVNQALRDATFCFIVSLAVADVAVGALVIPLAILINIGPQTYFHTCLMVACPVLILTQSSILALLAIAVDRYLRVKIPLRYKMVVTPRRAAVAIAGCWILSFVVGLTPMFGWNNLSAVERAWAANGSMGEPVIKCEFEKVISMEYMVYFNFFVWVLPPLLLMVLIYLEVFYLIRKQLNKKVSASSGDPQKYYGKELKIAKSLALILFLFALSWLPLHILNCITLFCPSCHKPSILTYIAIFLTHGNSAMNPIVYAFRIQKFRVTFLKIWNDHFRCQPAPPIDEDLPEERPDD", "test": "BioPrint Profile Panel", "conditions": "Agonist, Receptor, read-out: % Inhibition of Control Specific Binding", "source_text": "The BioPrint® Profile Panel service offered by Eurofins Discovery (Poitiers, France) was chosen to perform selectivity analysis."}, "[2]": {"test": "in vitro", "conditions": "human, microsomes"}, "[3]": {"test_system": "ERK1/2 and Akt1", "test": "Immunoblot, non-differentiated SH-SY5Y cells", "assay_type": "cell-based", "procedure": "The SH-SY5Y cell line was purchased from MilliporeSigma and cultured in growth medium: MEM (w/Earle’s Salts; w/L-Glutamine) + Ham’s F12 (w/L-Glutamine) (1:1 v/v), 1 × Antibiotic-Antimycotic, 1 × MEM Non-Essential Amino Acids (all reagents from Biowest, Riverside, MO, USA) and 15% FBS (Gibco, Thermo Fisher Scientific, Waltham, MA, USA). Cells were passaged using 0.25% Trypsin-EDTA (Biowest) and cultured in standard conditions (5% CO2, 37 °C with 95% relative humidity).\nCompound treatment was stopped by lysing cells with N-PER™ Neuronal Protein Extraction Reagent (Thermo Fisher Scientific) containing 1 × PhosSTOP™ (Roche, Basel, Switzerland), 1 × Halt Protease Inhibitor Single-Use Cocktail (ThermoFisher Scientific) and 5 mM EDTA. The lysates were collected by scraping, and centrifuged (8000× g; 10 min at 4 °C), and the protein concentration was determined using a BCA Pierce kit (ThermoFisher Scientific). The lysates were stored at −80 °C until further processing. […] After repeated washes (TBS-T), the proteins were detected with HRP-conjugated anti-rabbit antibodies (1:4000, RT, 2 h) (Cell Signaling Technology), and the blots were incubated with Clarity Max ECL Western Blotting Substrate (Bio-Rad). Blot images and chemiluminescence signals were captured using a ChemiDoc MP Imaging System, and densitometry values were calculated using the Image Lab software (Bio-Rad). […]"}, "[4]": {"test": "PAMPA", "conditions": "10 μM, 4 h"}, "[5]": {"biological_target": "T2, exTrkB (Homo sapiens, UniProt Q16620)", "T2 construct": "human TrkB receptor (exTrkB), residues 1−430, was cloned into the pCMV2 expression vector; made in house; host or cells: ExpiCHO-S cells", "T2 sequence (Q16620 32-430)": "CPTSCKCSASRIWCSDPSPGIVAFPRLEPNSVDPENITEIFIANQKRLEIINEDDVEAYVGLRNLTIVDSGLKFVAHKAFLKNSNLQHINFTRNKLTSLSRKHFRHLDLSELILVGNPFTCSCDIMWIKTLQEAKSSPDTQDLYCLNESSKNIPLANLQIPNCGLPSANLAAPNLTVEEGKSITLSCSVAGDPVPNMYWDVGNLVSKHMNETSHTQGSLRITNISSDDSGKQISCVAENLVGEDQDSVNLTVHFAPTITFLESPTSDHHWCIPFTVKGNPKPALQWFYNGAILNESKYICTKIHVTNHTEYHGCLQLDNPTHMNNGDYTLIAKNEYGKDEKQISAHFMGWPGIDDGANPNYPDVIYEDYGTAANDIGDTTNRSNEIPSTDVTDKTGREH", "test": "Ligand-induced exTrkB dimerization assay (native electrophoresis)", "assay_type": "biochemical", "conditions": "exTrkB:ligand 1:1, non-reducing conditions", "procedure": "The native exTrkB, BDNF, and tested compounds were separately diluted with PBS (pH 7.4) to a final concentration of 2.5 μM. Then, exTrkB, BDNF, or the tested compound were mixed (1:1 v/v) and incubated at 25 °C for 10 min, and 2X Sample Buffer (0.6 M Tris, 20% glycerol, 0.02% Bromophenol Blue, pH 6.8) was added to the samples. Afterwards, the samples were loaded into Stain-Free gels (10% Mini-PROTEAN® TGX Stain-Free™ Protein Gels; Bio-Rad, Hercules, CA, USA) and separated in non-reducing conditions using SDS-free electrophoresis buffer (192 mM glycine, 25 mM Tris; pH 8.3). Visualization of the protein bands was performed using a ChemiDoc MP Imaging System (Bio-Rad)."}}, "data": [{"molecule": "O=c1cc(-c2ccccc2)oc2c(O)c(O)ccc12", "note": "[7,8-DHF, 7,8-dihydroxyflavone]", "values": [{"measurement": "inhibition at 10 µM", "setting": "[1]", "value": 99, "unit": "%"}, {"measurement": "microsomal CLint at 1 μM", "setting": "[2]", "value": 52.2, "unit": "µL/min/mg"}]}, {"molecule": "C=CC(C)(C)c1[nH]c2ccccc2c1C1=C(O)C(=O)C(c2c[nH]c3c(CC=C(C)C)cccc23)=C(O)C1=O", "note": "[DMAQ-B1]", "values": [{"measurement": "Phosphorylation of ERK1/2 and Akt1", "setting": "[3]", "value": "significantly induce"}, {"measurement": "PAMPA", "setting": "[4]", "value": "6.93 10^−6·cm/s"}]}, {"molecule": "B1", "values": [{"measurement": "TrkB Dimerization", "setting": "[5]", "value": "YES"}]}]}
